Tests used:
[1] = biological target: T1, 11β-hydroxysteroid dehydrogenase type 1 (murine 11βHSD1, m11βHSD1) (Mus musculus, UniProt P50172); assay: competitive inhibition of 11-DHC reduction by recombinant enzyme (Dixon plot, HPLC); also itself reduced as a poor substrate (Km […]); format: biochemical
T1 construct: gene Hsd11b1; truncated form of recombinant m11βHSD1 protein (N23Δ)

[2] = biological target: T1, 11β-hydroxysteroid dehydrogenase type 1 (murine 11βHSD1, m11βHSD1); assay: competitive inhibition of corticosterone oxidation by recombinant enzyme (Dixon plot, HPLC); also itself oxidised as a poor substrate (Km […]); format: biochemical

T1 sequence (P50172 24-292): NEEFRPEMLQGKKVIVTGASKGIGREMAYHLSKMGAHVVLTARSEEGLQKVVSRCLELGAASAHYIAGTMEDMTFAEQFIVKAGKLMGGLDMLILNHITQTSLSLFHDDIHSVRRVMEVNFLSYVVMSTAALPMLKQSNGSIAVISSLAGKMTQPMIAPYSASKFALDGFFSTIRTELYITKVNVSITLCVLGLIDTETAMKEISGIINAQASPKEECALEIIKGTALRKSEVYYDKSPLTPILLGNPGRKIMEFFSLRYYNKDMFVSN

Row | SMILES | Ki [1] | Ki [2]
1 | CC(C)CCC[C@@H](C)[C@H]1CC[C@H]2[C@@H]3C(=O)C=C4C[C@@H](O)CC[C@]4(C)[C@H]3CC[C@]12C [7KC, 7-ketocholesterol] | 7.33 ± 1.76 µM | –
2 | CC(C)CCC[C@@H](C)[C@H]1CC[C@H]2[C@@H]3[C@@H](O)C=C4C[C@@H](O)CC[C@]4(C)[C@H]3CC[C@]12C [7βOHC, 7β-hydroxycholesterol] | – | 0.91 ± 0.05 µM

Source: article PMC3694296, “11β-Hydroxysteroid dehydrogenase type 1 contributes to the balance between 7-keto- and 7-hydroxy-oxysterols in vivo” (Biochemical Pharmacology, 2013)
